The target in series [1] is T1, HCMV polymerase (Human cytomegalovirus, UniProt P08546).
T1 construct: made in house; host or cells: recombinant baculovirus-infected SF-9 cells
As to the kind of experiment: HCMV polymerase scintillation proximity assay (SPA). The format is biochemical. As to conditions: 3H-dTTP incorporation. How it is done: (§1) The HCMV polymerase assay is performed using a scintillation proximity assay (SPA) as described in several references, such as N.D. Cook, et al., Pharmaceutical Manufacturing International, pages 49-53 (1992); K. Takeuchi, Laboratory Practice, September issue (1992); U.S. Pat. No. 4,568,649 (1986); which are incorporated by reference herein. Reactions are performed in 96-well plates. The assay is conducted in 100 μl volume with 5.4 mM HEPES (pH 7.5), 11.7 mM KCl, 4.5 mM MgCl2, 0.36 mg/ml BSA, and 90 nM ^3H-dTTP. Assays are run with and without CHAPS, (3-[(3-cholamidopropyl)-dimethylammonio]-1-propane-sulfonate) at a final concentration of 2 mM. HCMV polymerase is diluted in enzyme dilution buffer containing 50% glycerol, 250 mM NaCl, 10 mM HEPES (pH 7.5), 100 μg/ml BSA, and 0.01% sodium azide. The HCMV polymerase, which is expressed in recombinant baculovirus-infected SF-9 cells and purified according to literature procedures, is added at 10% (or 10 μl) of the final reaction volume, i.e., […]. Compounds are diluted in 50% DMSO and 10 μl are added to each well. Control wells contain an equivalent concentration of DMSO. Unless noted otherwise, reactions are initiated via the addition of 6 nM biotinylated poly(dA)-oligo(dT) template/primer to reaction mixtures containing the enzyme, substrate, and compounds of interest. Plates are incubated in a 25 C or 37 C H2O bath and terminated via the addition of 40 μl/reaction of 0.5 M EDTA (pH 8) per well. Reactions are terminated within the time-frame during which substrate incorporation is linear and varied depending upon the enzyme and conditions used, i.e., 30 min. for HCMV polymerase. Ten μl of streptavidin-SPA beads (20 mg/ml in PBS/10% glycerol) are added following termination of the reaction. Plates are incubated 10 min. at 37 C, then equilibrated to room temperature, and counted on a Packard Topcount. Linear regressions are performed and IC50's are calculated using computer software. A modified version of the above HCMV polymerase assay is performed as described above, but with the following changes: Compounds are diluted in 100% DMSO until final dilution into assay buffer. In the previous assay, compounds are diluted in 50% DMSO. 4.5 mM dithiotherotol (DTT) is added to the polymerase buffer.
On the technique in general: In a scintillation proximity assay essentially only radioactivity close to the scintillant gives light.

For series [2], the target named is HSV polymerase (Human herpesvirus 1, UniProt P04293). As to the kind of experiment: HSV polymerase assay (Table 1). The series is classed as biochemical. On the procedure: [Worded in the source for another target; this target is reported under the same test.] as §1
Sequence of HSV polymerase (P04293 whole entry): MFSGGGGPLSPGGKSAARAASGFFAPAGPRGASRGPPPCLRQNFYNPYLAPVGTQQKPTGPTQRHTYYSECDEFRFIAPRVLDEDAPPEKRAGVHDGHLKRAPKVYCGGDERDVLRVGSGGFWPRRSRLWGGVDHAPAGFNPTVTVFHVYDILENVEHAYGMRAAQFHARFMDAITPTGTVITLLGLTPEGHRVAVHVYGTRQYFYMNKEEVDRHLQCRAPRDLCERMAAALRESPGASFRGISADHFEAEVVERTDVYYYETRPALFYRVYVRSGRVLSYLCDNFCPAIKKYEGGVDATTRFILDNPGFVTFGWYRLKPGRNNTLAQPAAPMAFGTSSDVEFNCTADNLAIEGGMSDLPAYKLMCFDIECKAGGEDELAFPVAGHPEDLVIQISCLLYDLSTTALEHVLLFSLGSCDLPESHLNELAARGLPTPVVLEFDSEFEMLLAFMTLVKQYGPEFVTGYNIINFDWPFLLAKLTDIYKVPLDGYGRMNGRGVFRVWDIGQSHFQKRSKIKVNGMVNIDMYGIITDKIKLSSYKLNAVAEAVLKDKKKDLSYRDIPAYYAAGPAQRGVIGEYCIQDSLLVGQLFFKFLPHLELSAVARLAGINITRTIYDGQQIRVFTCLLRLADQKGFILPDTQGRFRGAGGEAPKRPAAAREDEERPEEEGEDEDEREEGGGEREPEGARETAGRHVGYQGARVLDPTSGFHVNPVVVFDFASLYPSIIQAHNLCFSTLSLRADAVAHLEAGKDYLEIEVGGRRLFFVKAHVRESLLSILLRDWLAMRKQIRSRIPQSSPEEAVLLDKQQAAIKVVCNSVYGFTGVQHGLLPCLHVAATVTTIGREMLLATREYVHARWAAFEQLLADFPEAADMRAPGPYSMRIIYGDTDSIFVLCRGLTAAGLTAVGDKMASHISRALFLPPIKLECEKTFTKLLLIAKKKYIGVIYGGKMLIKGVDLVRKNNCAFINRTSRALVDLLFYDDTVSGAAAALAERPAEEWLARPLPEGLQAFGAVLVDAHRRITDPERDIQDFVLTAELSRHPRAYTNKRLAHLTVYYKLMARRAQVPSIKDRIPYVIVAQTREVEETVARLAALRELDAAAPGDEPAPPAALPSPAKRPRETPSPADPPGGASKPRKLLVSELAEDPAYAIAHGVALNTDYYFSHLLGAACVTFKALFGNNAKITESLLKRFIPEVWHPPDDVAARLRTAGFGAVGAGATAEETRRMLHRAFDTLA
Series [3] deals with VZV polymerase (Varicella-zoster virus, UniProt P09252). As to the kind of experiment: VZV polymerase assay (Table 1). The series is classed as biochemical. On the procedure: [Worded in the source for another target; this target is reported under the same test.] as §1
Sequence of VZV polymerase (P09252 whole entry): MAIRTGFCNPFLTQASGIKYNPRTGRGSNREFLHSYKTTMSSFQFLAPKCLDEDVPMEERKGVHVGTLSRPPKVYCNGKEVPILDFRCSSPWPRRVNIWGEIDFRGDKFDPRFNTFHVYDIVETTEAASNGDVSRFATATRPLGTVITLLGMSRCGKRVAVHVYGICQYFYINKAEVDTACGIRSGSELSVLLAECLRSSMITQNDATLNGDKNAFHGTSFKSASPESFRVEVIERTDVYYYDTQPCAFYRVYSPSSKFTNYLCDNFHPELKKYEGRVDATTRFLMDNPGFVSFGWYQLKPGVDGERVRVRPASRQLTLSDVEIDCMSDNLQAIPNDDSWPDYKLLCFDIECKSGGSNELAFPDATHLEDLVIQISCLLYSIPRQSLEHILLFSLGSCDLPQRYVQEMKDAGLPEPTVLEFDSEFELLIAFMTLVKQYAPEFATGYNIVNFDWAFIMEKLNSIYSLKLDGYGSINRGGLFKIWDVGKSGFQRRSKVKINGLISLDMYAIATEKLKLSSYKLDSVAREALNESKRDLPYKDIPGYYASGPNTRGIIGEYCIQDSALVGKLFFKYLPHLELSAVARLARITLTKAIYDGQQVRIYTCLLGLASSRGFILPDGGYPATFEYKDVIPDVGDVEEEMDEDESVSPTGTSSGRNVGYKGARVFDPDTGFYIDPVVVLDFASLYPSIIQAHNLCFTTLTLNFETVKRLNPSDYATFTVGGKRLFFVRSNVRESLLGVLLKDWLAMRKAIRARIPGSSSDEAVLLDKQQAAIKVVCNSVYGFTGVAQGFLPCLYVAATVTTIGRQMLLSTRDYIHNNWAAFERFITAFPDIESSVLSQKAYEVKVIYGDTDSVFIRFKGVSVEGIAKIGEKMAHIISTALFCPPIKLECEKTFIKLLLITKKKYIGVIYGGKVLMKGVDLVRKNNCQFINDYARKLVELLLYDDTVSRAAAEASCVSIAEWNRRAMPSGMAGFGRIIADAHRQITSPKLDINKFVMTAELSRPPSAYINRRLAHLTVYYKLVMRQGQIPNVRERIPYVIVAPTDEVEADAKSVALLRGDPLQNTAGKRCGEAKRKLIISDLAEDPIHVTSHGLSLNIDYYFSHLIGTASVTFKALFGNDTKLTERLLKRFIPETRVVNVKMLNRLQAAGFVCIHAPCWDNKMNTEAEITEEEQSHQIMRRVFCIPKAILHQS

Molecules are shown by their SMILES.

A word on the IC50: it is the point on the concentration scale where inhibition reaches its midpoint. The low end stands for greater potency in that assay, the high end for weaker potency in that assay. As a reminder, the melting point is the temperature, or range, at which the solid turns liquid.

T1 sequence (P08546 whole entry): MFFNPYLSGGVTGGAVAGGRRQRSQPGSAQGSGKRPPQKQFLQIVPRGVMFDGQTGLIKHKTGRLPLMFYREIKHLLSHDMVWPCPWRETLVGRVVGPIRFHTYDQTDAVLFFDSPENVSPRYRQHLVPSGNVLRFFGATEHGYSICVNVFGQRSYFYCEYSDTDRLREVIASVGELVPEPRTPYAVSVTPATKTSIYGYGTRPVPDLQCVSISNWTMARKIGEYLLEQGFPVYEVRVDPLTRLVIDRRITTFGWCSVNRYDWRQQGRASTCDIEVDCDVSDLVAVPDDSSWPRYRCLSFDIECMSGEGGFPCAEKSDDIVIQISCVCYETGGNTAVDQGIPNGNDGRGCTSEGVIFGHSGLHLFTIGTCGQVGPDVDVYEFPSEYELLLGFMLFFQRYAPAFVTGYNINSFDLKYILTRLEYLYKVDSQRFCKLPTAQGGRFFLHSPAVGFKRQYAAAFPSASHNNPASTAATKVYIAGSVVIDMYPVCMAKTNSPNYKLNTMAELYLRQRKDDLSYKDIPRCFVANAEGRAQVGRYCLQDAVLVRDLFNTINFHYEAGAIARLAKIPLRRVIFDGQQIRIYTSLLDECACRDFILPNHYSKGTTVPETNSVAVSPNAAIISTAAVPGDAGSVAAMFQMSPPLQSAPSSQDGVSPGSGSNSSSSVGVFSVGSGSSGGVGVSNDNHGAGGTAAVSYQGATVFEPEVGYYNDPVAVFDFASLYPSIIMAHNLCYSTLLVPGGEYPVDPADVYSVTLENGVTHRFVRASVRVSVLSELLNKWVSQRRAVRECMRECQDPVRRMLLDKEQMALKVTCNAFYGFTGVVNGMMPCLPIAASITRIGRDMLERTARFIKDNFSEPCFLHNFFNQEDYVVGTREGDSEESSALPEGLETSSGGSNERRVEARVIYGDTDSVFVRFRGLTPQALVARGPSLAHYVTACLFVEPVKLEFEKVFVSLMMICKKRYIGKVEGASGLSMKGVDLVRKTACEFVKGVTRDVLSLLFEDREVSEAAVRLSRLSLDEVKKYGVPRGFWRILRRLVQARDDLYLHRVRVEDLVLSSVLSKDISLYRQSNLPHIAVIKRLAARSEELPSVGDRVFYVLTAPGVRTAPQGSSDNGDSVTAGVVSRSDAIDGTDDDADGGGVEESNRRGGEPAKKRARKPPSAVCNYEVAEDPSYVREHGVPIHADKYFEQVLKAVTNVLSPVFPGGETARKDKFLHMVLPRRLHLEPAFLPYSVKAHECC

On to `O=C(NCc1ccc(Cl)cc1)c1cn(-c2cccc(O)c2)c2ccc(CN3CCOCC3)cc2c1=O` [Example 13, N-(4-Chlorobenzyl)-I-(3-hydroxyphenyl)-6-(4-morpholinylmethyl)-4-oxo-1,4-dihydro-3-quinolinecarboxamide], for which the melting point fell in the range of 248 to 250 °C. In addition, in series [1], inhibition was half-maximal at 0.73 µM (IC50). Besides, in series [2], half-maximal inhibition (IC50) required 0.54 µM. In addition, the midpoint of inhibition in series [3], the IC50, lay at 0.24 µM.

In the case of `O=C(NCc1ccc(Cl)cc1)c1cn(-c2cccc(CCO)c2)c2ccc(CN3CCOCC3)cc2c1=O` [Example 14, N-(4-Chlorobenzyl)-1-(3-(2-hydroxyethyl)phenyl)-6-(4-morpholinylmethyl)-4-oxo-1,4-dihydro-3-quinolinecarboxamide], the melting point was in the range of 158 to 160 °C. Moreover, in series [1], inhibition was half-maximal at 0.82 µM (IC50). In addition, half-maximal inhibition in series [2] (IC50) required 0.7 µM. In addition, in series [3], the IC50 was found to be 0.43 µM.

Consider `O=C(NCc1ccc(Cl)cc1)c1cn(-c2cccc(CO)c2)c2ccc(CN3CCOCC3)cc2c1=O` [Example 17, N-(4-Chlorobenzyl)-1-(3-(hydroxymethyl)phenyl)-6-(4-morpholinylmethyl)-4-oxo-1,4-dihydro-3-quinolinecarboxamide], for which the melting point is 119 to 121 °C. In addition, the midpoint of inhibition in series [1], the IC50, lay at 0.74 µM. The IC50 in series [2] came out at 0.44 µM. Besides, the 50% inhibitory concentration (IC50) in series [3] is 0.31 µM.

Regarding `O=C(NCc1ccc(Cl)cc1)c1cn(-c2cccc(C#CCO)c2)c2ccc(CN3CCOCC3)cc2c1=O` [Example 20, N-(4-Chlorobenzyl)-1-(3-(3-hydroxy-1-propynyl)phenyl)-6-(4-morpholinylmethyl)-4-oxo-1,4-dihydro-3-quinolinecarboxamide], the melting point was 145 to 148 °C. This compound also displayed an IC50 in series [1] of 0.57 µM. The same compound displayed an IC50 in series [2] of 0.59 µM. In series [3], this compound gave an IC50 of 0.29 µM.

Consider `O=C(NCc1ccc(Cl)cc1)c1cn(-c2cccc(CCCO)c2)c2ccc(CN3CCOCC3)cc2c1=O` [Example 25, N-(4-Chlorobenzyl)-1-[3-(3-hydroxypropyl)phenyl]-6-(4-morpholinylmethyl)-4-oxo-1,4-dihydro-3-quinolinecarboxamide], for which the melting point was in the range of 115 to 118 °C. The IC50 in series [1] is 1.08 µM. The compound also returned an IC50 in series [2] of 0.98 µM. The compound also yielded an IC50 in series [3] of 0.48 µM.

The values are drawn from patent US6653307B2, “1-aryl-4-oxo-1,4-dihydro-3-quinolinecarboxamides as antiviral agents” (Pharmacia & Upjohn Company, priority 2000, dated 2003).
